Series [1] has as its system 2C'3ABCD portion of the HRV polyprotein precursor. Put plainly: In Vitro Translation of HRV RNA (rabbit reticulocyte lysate, autoradiography). The format is biochemical, human rhinovirus. The conditions noted are these: for Processing of translated viral polyprotein (autoradiography): inhibitor included in cell-free translation assay. The text has this:
In a cell-free translation system, when no inhibitor was present, RNA corresponding to the 2C'3ABCD portion of the HRV polypeptide precursor was translated into the various individual proteins of the virus. […]
Complementary DNA derived from the HRV genone and representing the 2C'3ABCD portion of the HRV polyprotein precursor (Lee W, Monroe S S, Reuckert R R (1993) J. Virol 67:211-2122) was inserted into the commercially available pCITE vector (Novagen, 565 Science Dr., Madison, Wis.). The vector is supplied with the Novagen Red Nova® Lysate translation assay kit, which provides a lysate of New Zealand White rabbit reticulocytes along with other reagents, that allows for efficient cell-free synthesis of proteins from exogenous RNA templates.
The pCITE 2C'3ABCD-containing plasmid was used to transform the JM101 cell line (Stratagene, La Jolla, Calif.) which was then grown under standardard conditions ([…], 37° C.) in 2× YT broth with ampicillin. The plasmid was then isolated by standard CsCl banding procedures.
The DNA was linearized by treatign the plasmid with 2 unitsMlu 1 restriction enzyme per μg DNA for 3 hours at 37° C., followed by proteinase K (50 μg/mL) treatment for 30 minutes at 37° C. The mixture was extracted twice with phenol/chloroform/isoamyl alcohol (1:1:1) followed by two extractions with chloroform/isoamyl alcohol (1:1). A 0.1 volume 3M sodium acetate (NaOAc), pH 5.2 and two volumes of 100% ethanol were added before placing at -80° C. for 60 minutes. The supernatant was decanted and the pellet was rinsed with 70% ethanol, dried under vacuum, and then resuspended in 25 μL Tris-EDTA buffer (10 mM Tris, 1 mM EDTA; pH 7.6). […]
The compounds of Formula I were assayed according to the Red Nova protocol for their ability to inhibit translation of the rhinoviral RNA by the reticulocyte lysate. ^3 H-Leucine (5 mCi/mL) was included in the assay mixture so that translation products could be identified by autoradiography when the samples were analyzed by SDS polyacrylamide gel electrophoresis. […]

The subject of series [2] is HRV. In words: Whole Cell Culture Assay of Anti-HRV Activity (Hela cells, XTT). The format is cell-based, human rhinovirus. Conditions: concentration not given. How it is done:
A third measure of antiviral activity was performed by determining the effects of selected 3C protease inhibitors of Formula I on HRV infection in cultures of Hela cells.
Commercially available Hela cells are susceptible to HRV infection. The virus enters the cells where it readily replicates and when infection levels become high enough, the Hela cells die. The effect of HRV inhibitors can be measured in Hela cultures by first exposing the cells to HRV and shortly thereafter (before viral infection becomes critical) adding potential inhibitors. Compounds which inhibit 3C protease activity serve to protect the cells from the cytopathic effect of the virus. Comparison of viability in cultures receiving serial dilutions of inhibitor to cultures not receiving any inhibitor allows quantitation of the antiviral effect. Any toxic effect of the inhibitor can also be measured by comparing viability of treated cultures with those cultures which are not infected with the virus.
Viability determinations can be readily made by direct counts of viable cells or by assays representative of viability such as measurement of mitochondrial enzyme activity.
Hela cells were dispersed in a 96-well tissue culture plate at 20,000 cells per well with minimum essential medium containing Earl's balanced salt solution, 1% fetal bovine serum, penicillin (150 units/mL) and streptomycin (150 μg/mL). […]
(In general: Tetrazolium dyes change colour on reduction, which living cells bring about.)

Results on three compounds are retold here after patent US5821331A, “Anti-picornaviral agents” (Eli Lilly and Company, priority 1996, dated 1998).

Where a SMILES comes first, the peptide text is derived from it. The star is where a group is joined. Boc = CC(C)(C)OC(=O)*

As for `CC(C)C[C@H](N)C(=O)N[C@@H](Cc1ccccc1)C(=O)N[C@H](C=O)CCC(N)=O` [Example 7, N-(L-leucinyl-L-phenylalanyl)-L-glutamine aldehyde] (H-Leu-Phe-Gln-aldehyde), the “Translation Assay (toxic)” value in series [1] (at the dose tested (dose not given)) was “toxic”. For the same compound, the “Whole Cell Antiviral Testing (toxic)” value in series [2] is given as “toxic”. As for `CC(C)C[C@H](NC(=O)[C@@H](NC(=O)OC(C)(C)C)C(C)C)C(=O)N[C@@H](Cc1ccccc1)C(=O)N[C@H](C=O)CCC(N)=O` [Example 5, N-(t-butoxycarbonyl-L-valinyl-L-leucinyl-L-phenylalanyl)-L-gluatamine aldehyde] (Boc-VLFQ-aldehyde), the “Processing of translated viral polyprotein (autoradiography)” value in series [1] is “single unprocessed band”. Still for that read-out and setting: the value for `CC(=O)N[C@@H](CC(C)C)C(=O)N[C@@H](Cc1ccccc1)C(=O)N[C@H](C=O)CCC(N)=O` [Example 6, N-(Acetyl-L-leucinyl-L-phenylalanyl)-L-glutamine aldehyde] (Ac-Leu-Phe-Gln-aldehyde) was “single unprocessed band”.
